Experiments:
IDO1 promoter = IDO1 promoter reporter gene assay in HEK293T cells; format: cell-based; settings: IFN-γ, 48 h
Protocol: GraphPad Prism 9.0 (GraphPad Software, Inc, US) to generate dose-response curves and obtain […]
IDO1 promoter reporter gene assay
HEK293T cells (25,000 cells/well) were reverse-transfected with pXPG-IDO1[16] (4 µg/96-well plate, kindly provided by Gina M. Doody, Leeds, UK) and pRL-TK (300 ng/96-well plate, Promega, US) using Lipofectamine™ 2000 (Invitrogen, USA) pri or to incubation for 24 h. Afterwards, cells were treated with 50 ng/mL IFN-γ and the compounds for 48 h. Luminescence generated by the Fluc reporter and the control reporter Rluc was measured using the Dual-Glo ® Luciferase Assay System (Promega, US) on the Spark® Multimode Microplate Reader (Tecan, AT). To determine the IDO1 promoter activity, Fluc signals were divided by Rluc signals and normalized to the values of the DMSO control. Data analysis was performed using a non-linear regression curve fit and […]
BxPC-3 cells (30,000 cells/well) were seeded in 96-well plates in Trp-free RPMI 1640 medium and incubated for 48 h prior addition of 50 ng/mL IFN-γ. […]
The supernatant was transferred to a new plate, trichloroacetic acid was added to a final concentration of 7% (v/v) and plates were incubated for 15 min at room temperature. Samples were centrifuged for 10 min at 1800 x g and L-Trp was quantified by HPLC-MS/MS using the LTQ Velos Pro and Dionex HPLC (Thermo Fisher Scientific, US). […]

IDO1 protein levels = IDO1 protein levels (immunoblotting, In-Cell Western); format: cell-based; settings: immunoblotting (HeLa, IFN-γ, 24 h) and in-Cell western
Protocol: Kit (QIAGEN, DE) following the manufacturer’s procedure. DNA was removed on column by […]
DNase digestion with RNase-free DNase Set (QIAGEN, DE) according to the manufacturer’s […]
instructions. Following the manufacturer’s protocol, cDNA templates were synthesized from […]
800 ng total RNA using the QuantiTect Reverse Transcription Kit (QIAGEN, DE).
The expression levels of the IDO1 gene and the reference GAPDH were assessed by real-time […]
quantitative PCR (qPCR). Therefore, 120 ng cDNA was amplified using 500 nM of gene-specific […]
primers and SsoAdvanced Universal SYBR Green Supermix (Bio-Rad Laboratories, DE) in a total […]
volume of 10 µL for 50 cycles using the CFX96 Touch™ Real-Time PCR Detection System (Bio- […]
Rad Laboratories, DE). Relative IDO1 expression levels were calculated using the ΔΔCt method […]
with GAPDH as reference gene[17] and represented using GraphPad Prism 9.0 (GraphPad […]
and homogenized by sonication. Protein concentration was determined using the DC Protein […]
11 µM rhIDO1 was incubated with compounds at indicated concentrations for 60 min at 37°C in 50 mM potassium phosphate buffer (16.9 mM K2HPO4, 33.1 mM, KH2PO4, pH 6.5). The thermal protein stability from 20°C to 90°C (1°C/min) was measured by means of the intrinsic tryptophan/tyrosine fluorescence using the Prometheus™ NT.48 (NanoTemper® Technologies, […]

CCOC(=O)C1=CC[C@](C(=O)OC)(c2cc3ccccc3n2C)N(S(=O)(=O)c2ccc(C)cc2)[C@@H]1C(=O)OC(C)(C)C [Compound 3d]
expression of the Fluc reporter under IDO1 promoter (IDO1 promoter): did not reduce the expression of the reporter | level of the IDO1 protein (IDO1 protein levels): did not alter the level of the IDO1 protein
